Source: PMC7995547, “ω‐Imidazolyl‐alkyl derivatives as new preclinical drug candidates for treating non‐alcoholic steatohepatitis” (Physiological Reports, 2021)
“Also recorded” adds a separate entry of the source.

System: male CD/Crl:CD(SD) rats
Test: Acute toxicity study, single peroral application, 14‐day observation
Type: in vivo
Settings: for Ataxia / Chromodacryorrhea / Dyspnoea / Inhibition of body weight gain / Mean body weight gain, After 7 d / Mean body weight, After 7 d / Mortality within 6 h / Mortality within 24 h / Necropsy findings / Piloerection / Ptosis / Reduced motility / Reduced muscle tone / Mean body weight gain, End / Mean body weight, End / Mean body weight, Start / Mortality within 7 d / Mortality within 14 d: p.o., males, n = 5; for Mean body weight gain, End / Mean body weight, End: 14‐day observation; for Mean body weight, Start: before administration; for Premature deaths in the acute toxicity study: rat, in vivo
Method: In total, 90 male CD®/Crl:CD(SD) rats from Charles River Laboratories, Deutschland GmbH, were used after randomization. Five rats were selected for each concentration of the corresponding experimental substance. […] In addition, a control group was formed with five rats receiving only the HPMC gel.
Feeding was stopped approximately 16 h before the start of test substance application, whereas tap water continued to be available ad libitum. Granulated structural wood was used as bedding material in the cages; the material was changed and the cages were cleaned twice a week. […] The rooms were illuminated (approximately 150 lux from a ceiling height of approximately 1.50 m) and darkened for 12 h in turns.
Each animal was kept under observation, so that any behavior deviating from the norm could be systematically recorded. Observations were made before the peroral application of the respective active substance, immediately after, and 5, 15, 30, and 60 min and 3, 6, and 24 h after the start of application. […] We focused on the changes in the skin and fur, the eyes and mucous membranes, respiration, circulation, the autonomous and central nervous systems, somatomotor activity, and behavior patterns. They were also observed for possible tremors, convulsions, salivation, diarrhea, lethargy, sleep, and coma. Mortality checks were performed at least once a day to minimize the loss of animals during the study. The time of death was recorded as accurately as possible. Individual body weights were recorded before the administration of experimental substances and, subsequently, at weekly intervals, until the end of the study and at death. Weight changes were calculated when survival exceeded 1 day.
At the end of the experiments, all surviving animals were sacrificed, dissected, and examined macroscopically. All notable pathological changes were recorded. A microscopic examination of all organs showing obvious lesions was performed on animals that survived for 24 h or longer. Autopsy and macroscopic inspection of prematurely deceased animals were performed as soon as possible after death.

OCCCCCCCCCCCCn1ccnc1 [I‐ol, 12‐imidazolyl‐1‐dodecanol]
Ataxia (10 mg/kg b.w.): None | Chromodacryorrhea (10 mg/kg b.w.): None | Dyspnoea (10 mg/kg b.w.): None | Inhibition of body weight gain (10 mg/kg b.w.): None | Mean body weight gain, After 7 d (10 mg/kg b.w.): +17.0% | Mean body weight, After 7 d (10 mg/kg b.w.): 259.2 g | Mortality within 6 h (10 mg/kg b.w.): 0 | Mortality within 24 h (10 mg/kg b.w.): 0 | Necropsy findings (10 mg/kg b.w.): None | Piloerection (10 mg/kg b.w.): None | Ptosis (10 mg/kg b.w.): None | Reduced motility (10 mg/kg b.w.): None | Reduced muscle tone (10 mg/kg b.w.): None | Mean body weight gain, End (10 mg/kg b.w.): +30.0% | Mean body weight, End (10 mg/kg b.w.): 288.0 g | Mean body weight, Start (10 mg/kg b.w.): 221.6 g | Mortality within 7 d (10 mg/kg bw): 0 | Mortality within 14 d (10 mg/kg bw): 0 | Ataxia (50 mg/kg b.w.): None | Chromodacryorrhea (50 mg/kg b.w.): None | Dyspnoea (50 mg/kg b.w.): None | Inhibition of body weight gain (50 mg/kg b.w.): None | Mean body weight gain, After 7 d (50 mg/kg b.w.): +22.2% | Mean body weight, After 7 d (50 mg/kg b.w.): 278.4 g | Mortality within 6 h (50 mg/kg b.w.): 0 | Mortality within 24 h (50 mg/kg b.w.): 0 | Necropsy findings (50 mg/kg b.w.): None | Piloerection (50 mg/kg b.w.): None | Ptosis (50 mg/kg b.w.): None | Reduced motility (50 mg/kg b.w.): None | Reduced muscle tone (50 mg/kg b.w.): None | Mean body weight gain, End (50 mg/kg b.w.): +36.3% | Mean body weight, End (50 mg/kg b.w.): 310.4 g | Mean body weight, Start (50 mg/kg b.w.): 227.8 g | Mortality within 7 d (50 mg/kg bw): 0 | Mortality within 14 d (50 mg/kg bw): 0 | Ataxia (100 mg/kg b.w.): None | Chromodacryorrhea (100 mg/kg b.w.): None | Dyspnoea (100 mg/kg b.w.): None | Inhibition of body weight gain (100 mg/kg b.w.): None | Mean body weight gain, After 7 d (100 mg/kg b.w.): +18.5% | Mean body weight, After 7 d (100 mg/kg b.w.): 272.6 g | Mortality within 6 h (100 mg/kg b.w.): 0 | Mortality within 24 h (100 mg/kg b.w.): 0 | Necropsy findings (100 mg/kg b.w.): None | Piloerection (100 mg/kg b.w.): None | Ptosis (100 mg/kg b.w.): None | Reduced motility (100 mg/kg b.w.): None | Reduced muscle tone (100 mg/kg b.w.): None | Mean body weight gain, End (100 mg/kg b.w.): +33.0% | Mean body weight, End (100 mg/kg b.w.): 305.8 g | Mean body weight, Start (100 mg/kg b.w.): 230.0 g | Mortality within 7 d (100 mg/kg bw): 0 | Mortality within 14 d (100 mg/kg bw): 0 | Ataxia (250 mg/kg b.w.): None | Chromodacryorrhea (250 mg/kg b.w.): None | Dyspnoea (250 mg/kg b.w.): None | Inhibition of body weight gain (250 mg/kg b.w.): None | Mean body weight gain, After 7 d (250 mg/kg b.w.): +19.6% | Mean body weight, After 7 d (250 mg/kg b.w.): 266.8 g | Mortality within 6 h (250 mg/kg b.w.): 0 | Mortality within 24 h (250 mg/kg b.w.): 0 | Necropsy findings (250 mg/kg b.w.): None | Piloerection (250 mg/kg b.w.): None | Ptosis (250 mg/kg b.w.): None | Reduced motility (250 mg/kg b.w.): None | Reduced muscle tone (250 mg/kg b.w.): None | Mean body weight gain, End (250 mg/kg b.w.): +34.2% | Mean body weight, End (250 mg/kg b.w.): 299.2 g | Mean body weight, Start (250 mg/kg b.w.): 223.0 g | Toxic signs (250 mg/kg bw): None | Mortality within 7 d (250 mg/kg bw): 0 | Mortality within 14 d (250 mg/kg bw): 0 | Ataxia (500 mg/kg b.w.): None | Chromodacryorrhea (500 mg/kg b.w.): None + | Dyspnoea (500 mg/kg b.w.): None | Inhibition of body weight gain (500 mg/kg b.w.): None | Mean body weight gain, After 7 d (500 mg/kg b.w.): +29.0% | Mean body weight, After 7 d (500 mg/kg b.w.): 294.2 g | Mortality within 6 h (500 mg/kg b.w.): 0 | Mortality within 24 h (500 mg/kg b.w.): 0 | Necropsy findings (500 mg/kg b.w.): None | Ptosis (500 mg/kg b.w.): None | Reduced motility (500 mg/kg b.w.): None | Reduced muscle tone (500 mg/kg b.w.): None | Mean body weight gain, End (500 mg/kg b.w.): +46.6% | Mean body weight, End (500 mg/kg b.w.): 334.2 g | Mean body weight, Start (500 mg/kg b.w.): 228.0 g | Toxic signs (500 mg/kg bw): None | Mortality within 7 d (500 mg/kg bw): 0 | Mortality within 14 d (500 mg/kg bw): 0 | Chromodacryorrhea (1000 mg/kg b.w.): None | Inhibition of body weight gain (1000 mg/kg b.w.): None | Mean body weight gain, After 7 d (1000 mg/kg b.w.): +22.4% | Mean body weight, After 7 d (1000 mg/kg b.w.): 271.2 g | Mortality within 6 h (1000 mg/kg b.w.): 0 | Mortality within 24 h (1000 mg/kg b.w.): 0 | Necropsy findings (1000 mg/kg b.w.): None | Piloerection (1000 mg/kg b.w.): None | Ptosis (1000 mg/kg b.w.): None | Mean body weight gain, End (1000 mg/kg b.w.): +36.6% | Mean body weight, End (1000 mg/kg b.w.): 302.6 g | Mean body weight, Start (1000 mg/kg b.w.): 221.6 g | Toxic signs (1000 mg/kg bw): reduced motility was observed, with reduced muscle tone, ataxia, and dyspnea; also recorded: Reduced motility and muscle tone, ataxia, dyspnoea | Mortality within 7 d (1000 mg/kg bw): 0 | Mortality within 14 d (1000 mg/kg bw): 0 | Macroscopic necropsy findings (all doses): None | Premature deaths in the acute toxicity study (male, CD/Crl:CD(SD), 14 days): None of the 30 rats died | Premature deaths in the acute toxicity study: did not lead to any death | Dose up to which no acute toxicity was shown (rats, single p.o. dose): 1000 mg/kg b.w. | Lowest lethal dose (rats, single p.o. dose): >1000 mg/kg bw | No Observed Adverse Effect Level (rats, single p.o. dose): 500 mg/kg bw | LD50(14 d) (rats, single p.o. dose, 14 days): >1000 mg/kg bw
